≈ marks a conversion by molar mass, not a printed value.
Columns and labels:
[1] = cited from the MSDS; cited from earlier work
[2] = cited from earlier work
DNA = DNA binding constant
plasmid DNA = assay: Photocleavage of plasmid DNA (ethidium bromide stained agarose gel); format: biochemical; conditions: irradiation with visible light (λ>395 nm); 120 μM plasmid DNA; 25 and 50 μM riboflavin; 30 min incubation, 30 min irradiation
Description: From the left: Lane 1: DNA only, dark. Lane 2: DNA only, irradiated.

[3] = Singlet oxygen study using ADPA as singlet oxygen sensor; format: physicochemical; conditions: after 15 minutes of irradiation
Water solubility = format: physicochemical
E. coli = assay: microbe, parasite or virus in culture; conditions: Escherichia coli, light or radiation study, read-out: LD50 E. coli Irradiated

Description for Human Skin: Toxicity of the formulations towards human skin cells is examined by previously published methods.

Row | Compound | LD50 Human Skin Dark (Human Skin; dark) | LD50 Human Skin Irradiated (Human Skin; irradiated) | LD50 Acute Oral Toxicity [1] | water solubility [2] | DNA binding constant Kb (DNA) | Photocleavage of plasmid DNA from Form I (supercoiled) to Form II (nicked) (plasmid DNA) | Production of singlet oxygen [3] | concentration showing precipitation in water (Water solubility) [μm] | LD50 (E. coli) [mg/kg]
1 | CC1=C(C/C=C(\C)CCC[C@H](C)CCC[C@H](C)CCCC(C)C)C(=O)c2ccccc2C1=O [Phylloquinone, phylloquinone] | No Effect | 18,779 mg/Kg | 25,000 mg/Kg | does not dissolve in water | – | – | – | – | –
2 | Cc1cc2nc3c(=O)[nH]c(=O)nc-3n(C[C@H](O)[C@H](O)[C@H](O)CO)c2cc1C [Riboflavin, 7,8-dimethyl-10-ribityl-isoalloxazine] | – | – | – | 100 µg/mL (≈ 266 µM) | > 10^4 M^−1 | can cleave DNA | capable of producing a large quantity of singlet oxygen | 250 | 85
